Assay results as given in patent US12410160B2 (Gilead Sciences, Inc., priority 2021, dated 2025).

Legend:
[1] = biological target: KHK-C expressed in NRK-52E cells (Homo sapiens (Human), UniProt P50053); experiment: KHK-C Cell-based Assay (EC50), NRK CTG, fructose-mediated ATP-depletion
[2] = biological target: human KHK-C (Homo sapiens (Human), UniProt P50053); experiment: KHK Biochemical Assay (IC50), ADP-Glo, KHK-C; settings: average of at least two separate assays
How it was run: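 ADP-Glo luminescence measured ADP made over a 4 h room-temperature reaction of ATP plus fructose, started after 30 min compound–enzyme pre-incubation. Buffer: 50 mM Hepes pH 7.4, 140 mM KCl, 5 mM MgCl2, 0.01% Triton-X. Enzyme was His-tagged, BL21 (DE3)-expressed, Ni-NTA-purified; compounds in 1:3 DMSO dilution series.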

Sequence of KHK-C expressed in NRK-52E cells (P50053 whole entry): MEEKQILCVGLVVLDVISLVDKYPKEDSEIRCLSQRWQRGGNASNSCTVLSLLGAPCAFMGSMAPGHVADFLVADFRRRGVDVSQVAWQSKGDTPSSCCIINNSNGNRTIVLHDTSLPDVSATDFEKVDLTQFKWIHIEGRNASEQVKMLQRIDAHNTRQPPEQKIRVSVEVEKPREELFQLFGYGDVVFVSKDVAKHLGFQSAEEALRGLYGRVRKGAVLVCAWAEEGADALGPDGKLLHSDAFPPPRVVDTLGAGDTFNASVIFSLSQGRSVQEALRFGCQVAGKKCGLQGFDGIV
Sequence of human KHK-C (P50053 whole entry): as above

| EC50 [1] [nM] | IC50 [2] [nM] | Structure (SMILES) |
| --- | --- | --- |
| 92 | 32 | C[C@H]1[C@H](O)CN1c1nc(-c2ccc3c(c2)CN(S(C)(=O)=O)CC3)c2c(n1)C(F)(F)CC2 [Example 611, (2S,3R)-1-(7,7-difluoro-4-(2-(methylsulfonyl)-1,2,3,4-tetrahydroisoquinolin-7-yl)-6,7-dihydro-5H-cyclopenta[d]pyrimidin-2-yl)-2-methylazetidin-3-ol] |
| 1.2 | 0.2 | CN1C(=O)N[C@]2(CCc3cc(-c4nc(N5CC[C@@H]5CF)nc5c4CCC5(F)F)ccc32)C1=O [Example 676, (5S)-5′-[7,7-difluoro-2-[(2R)-2-(fluoromethyl)azetidin-1-yl]-5,6-dihydroeyelopenta[d]pyrimidin-4-yl]-3-methyl-spiro[imidazolidine-5,1′-indane]-2,4-dione] |
| 366 | 67.2 | N#CC1CCN1c1nc(-c2ccc(C(N)=O)cc2)c2c(n1)C(F)(F)CC2 (centres unmarked) [Example 706, 4-(2-(2-cyanoazetidin-1-yl)-7,7-difluoro-6,7-dihydro-5H-cyclopenta[d]pyrimidin-4-yl)benzamide] |
| > 5000 | > 5000 | N#CC1CN(c2nc(-c3ccc(C(N)=O)cc3)c3c(n2)C(F)(F)CC3)C1 [Example 708, 4-(2-(3-cyanoazetidin-1-yl)-7,7-difluoro-6,7-dihydro-5H-cyclopenta[d]pyrimidin-4-yl)benzamide] |
| > 5000 | > 5000 | CS(=O)(=O)c1cccc(-c2nc(N3CCC[C@H]3C#N)nc3c2CCC3)c1 [Example 712, (S)-1-(4-(3-(methylsulfonyl)phenyl)-6,7-dihydro-5H-cyclopenta[d]pyrimidin-2-yl)pyrrolidine-2-carbonitrile] |
| 4900 | 2340 | CS(=O)(=O)c1cccc(-c2nc(N3CCC[C@@H]3C#N)nc3c2CCC3)c1 [Example 713, (R)-1-(4-(3-(methylsulfonyl)phenyl)-6,7-dihydro-5H-cyclopenta[d]pyrimidin-2-yl)pyrrolidine-2-carbonitrile] |
| > 5000 | > 5000 | CC1(C#N)CCN1c1nc2c(c(-c3cccc(S(C)(=O)=O)c3)n1)CCC2 (centres unmarked) [Example 714, 2-methyl-1-(4-(3-(methylsulfonyl)phenyl)-6,7-dihydro-5H-cyclopenta[d]pyrimidin-2-yl)azetidine-2-carbonitrile] |
| 5000 | 2390 | NC(=O)c1ccc(-c2nc(N3CCC34COC4)nc3c2CCC3)cc1 [Example 730, 4-(2-(6-oxa-1-azaspiro[3.3]heptan-1-yl)-6,7-dihydro-5H-cyclopenta[d]pyrimidin-4-yl)benzamide] |
| 250 | 5.2 | C[C@H]1CCN1c1nc2c(c(-c3ccc4[nH]c(N)nc4c3)n1)CCC2 [Example 731, (S)-5-(2-(2-methylazetidin-1-yl)-6,7-dihydro-5H-cyclopenta[d]pyrimidin-4-yl)-1H-benzo[d]imidazol-2-amine] |
| 224 | 24.9 | C[C@@H](NS(C)(=O)=O)c1cccc(-c2nc(N3C[C@@H](O)[C@@H]3C)nc3c2CCC3(F)F)c1 [Example 741, N-[(1R)-1-[3-[7,7-difluoro-2-[(2S,3R)-3-hydroxy-2-methyl-azetidin-1-yl]-5,6-dihydrocyclopenta[d]pyrimidin-4-yl]phenyl]ethyl]methanesulfonamide] |
| 4.1 | 1.3 | C[C@H]1CCN1c1nc(-c2cc3c(c(S(N)(=O)=O)c2)OCC3)c2c(n1)C(F)(F)CC2 [Example 742, 5-[7,7-difluoro-2-[(2S)-2-methylazetidin-1-yl]-5,6-dihydrocyclopenta[d]pyrimidin-4-yl]-2,3-dihydrobenzofuran-7-sulfonamide] |

The remaining lines, values behind:

| Structure (SMILES) | EC50 [1] [nM] | IC50 [2] [nM] |
| --- | --- | --- |
| CCN1C(=O)N[C@]2(CCc3cc(-c4nc(N5C[C@@H](O)[C@@H]5C)nc5c4CCC5(F)F)ccc32)C1=O [Example 685, (58)-5′-[7,7-difluoro-2-[(2S,3R)-3-hydroxy-2-methyl-azetidin-1-yl]-5,6-dihydrocyclopenta[d]pyrimidin-4-yl]-3-ethyl-spiro[imidazolidine-5,1′-indane]-2,4-dione] | 2.1 | 0.2 |
| C[C@H]1CCN1c1nc2c(c(-c3cn(C4COC4)nn3)n1)CCC2 [Example 704, 2-[(2S)-2-methylazetidin-1-yl]-4-[1-(oxetan-3-yl)triazol-4-yl]-6,7-dihydro-5H-cyclopenta[d]pyrimidine] | 1330 | 254 |
| N#C[C@H]1CCN1c1nc(-c2ccc(C(N)=O)cc2)c2c(n1)C(F)(F)CC2 [Example 707, (R)-4-(2-(2-cyanoazetidin-1-yl)-7,7-difluoro-6,7-dihydro-5H-cyclopenta[d]pyrimidin-4-yl)benzamide] | 330 | 43.4 |
| C[C@H]1CCN1c1nc2c(c(-c3ccc4nc(N)oc4c3)n1)CCC2 [Example 728, (S)-6-(2-(2-methylazetidin-1-yl)-6,7-dihydro-5H-cyclopenta[d]pyrimidin-4-yl)benzo[d]oxazol-2-amine] | 52.1 | 22.2 |
| C[C@H]1CCN1c1nc2c(c(-c3cnc(N)nc3)n1)CCC2 [Example 732, (S)-5-(2-(2-methylazetidin-1-yl)-6,7-dihydro-5H-cyclopenta[d]pyrimidin-4-yl)pyrimidin-2-amine] | 361 | 87.9 |
| C[C@H]1CCN1c1nc2c(c(-c3ccc4sc(N)nc4c3)n1)CCC2 [Example 733, (S)-5-(2-(2-methylazetidin-1-yl)-6,7-dihydro-5H-cyclopenta[d]pyrimidin-4-yl)benzo[d]thiazol-2-amine] | 124 | 49.8 |
| C[C@H]1CCN1c1nc2c(c(-c3ccc4nc(N)sc4c3)n1)CCC2 [Example 734, (S)-6-(2-(2-methylazetidin-1-yl)-6,7-dihydro-5H-cyclopenta[d]pyrimidin-4-yl)benzo[d]thiazol-2-amine] | 91.1 | 72.3 |
| C[C@H]1CCN1c1nc2c(c(-c3ccc4oc(N)nc4c3)n1)CCC2 [Example 736, (S)-5-(2-(2-methylazetidin-1-yl)-6,7-dihydro-5H-cyclopenta[d]pyrimidin-4-yl)benzo[d]oxazol-2-amine] | 34.9 | 21 |
| C[C@H]1[C@H](O)CN1c1nc(-c2ccc(C(=O)NCC#N)cc2)c2c(n1)C(F)(F)CC2 [Example 737, N-(cyanomethyl)-4-(7,7-difluoro-2-((2S,3R)-3-hydroxy-2-methylazetidin-1-yl)-6,7-dihydro-5H-cyclopenta[d]pyrimidin-4-yl)benzamide] | 242 | 9.7 |
| C[C@H]1[C@H](O)CN1c1nc2c(c(-c3cc4c(c(S(N)(=O)=O)c3)OCC4)n1)CCC2 [Example 739, 5-(2-((2S,3R)-3-hydroxy-2-methylazetidin-1-yl)-6,7-dihydro-5H-cyclopenta[d]pyrimidin-4-yl)-2,3-dihydrobenzofuran-7-sulfonamide] | 215 | 38.4 |
| C[C@@H](NS(C)(=O)=O)c1ccc(-c2nc(N3C[C@@H](O)[C@@H]3C)nc3c2CCC3(F)F)cc1 [Example 740, N-[(1R)-1-[4-[7,7-difluoro-2-[(2S,3R)-3-hydroxy-2-methyl-azetidin-1-yl]-5,6-dihydrocyclopenta[d]pyrimidin-4-yl]phenyl]ethyl]methanesulfonamide] | 323 | 40.3 |
